Experiment [1] has as its system Total ATXN3 (tATXN3) protein. Put plainly: Endogenous Total ATXN3 (tATXN3) Protein Assay (MSD immunoassay of cell lysates). To be noted: average IC50, total ATXN3 protein in cell lysate after 48 h with compound (Table 1). The experiment is classed as cell-based. Here is the method:
Endogenous Total ATXN3 (tATXN3) Protein Assay
Meso Scale Discovery (MSD) 96-well or 384-well plates were coated overnight at 4° C. with Ataxin 3 mouse monoclonal antibody (Invitrogen, MA3-082) at a concentration of 0.5 μg/mL in PBS (30 μL per well). Plates were then washed three times with 300 μL wash buffer (0.05% TWEEN®-20, polyethylene glycol sorbitan monolaurate, in PBS) and blocked (Meso Scale Diagnostics, R93BA-1; 5% BSA in PBS) for 2 h at RT with rotational shaking and then washed three times with wash buffer.
(§1) Test compounds were serially diluted 3.16-fold in 100% DMSO to generate a 7-point concentration curve. Aliquots of 0.5 μL of diluted compounds were transferred to a 96-well flat bottom plate by a liquid handler. An aliquot of 0.5 μL DMSO was also transferred to separate wells and used as controls. Duplicate samples were set up for each compound concentration and for the DMSO control.
Cells were thawed and incubated in cell culture media (DMEM, 10% FBS, and 1% antibiotic cocktail) for 72 h. Cells were trypsinized, counted, and re-suspended to a concentration of 100,000 cells/mL in cell culture media. A 100 μL aliquot of the cell suspensions were plated at 10,000 cells per well in the compound containing 96 well microtiter plate and incubated for in a cell culture incubator (37° C., 5% CO2, 100% relative humidity). After 48 h, the medium was removed and 50-100 μL of lysis buffer (Meso Scale Diagnostics, R60TX-2) containing 1× halt protease inhibitor cocktail of (Thermo Scientific, Halt™ Protease Inhibitor Cocktail, 78430) per well was added to cells to provide a “cell lysate”. The plate was placed on a shaker at 4° C. for 30 minutes, then stored at −80° C.
Cell lysate samples (25 μL) were transferred to the antibody-coated MSD plate and incubated overnight at 4° C. After removal of the lysates, the plate was washed three times with wash buffer, and 25 μL of Ataxin 3 recombinant rabbit monoclonal antibody (Invitrogen, #702788) secondary antibody (diluted to 0.25 μg/mL in 0.05% TWEEN®-20 in blocking buffer) was added to each well and incubated with shaking for 1-2 h at room temperature. Following incubation with the secondary antibody, the wells were rinsed with wash buffer and then 25 μL of Anti Rabbit Antibody Goat SULFO-TAG Labeled (Meso Scale Diagnostics, R32AB-1) detecting antibody (diluted to […] in 0.05% TWEEN®-20 in blocking buffer) was added to each well and incubated with shaking for 1 h at room temperature. After rinsing three times with wash buffer, 150 μL of Read Buffer T with surfactant (tris-based buffer containing tripropylamine, Meso Scale Diagnostics, R92TC-1) were added to each empty well, and the plate was imaged on a SI 6000 imager (MSD) according to manufacturers' instructions provided for 96- or 384-well plates.
(§2) An average IC50>1 μM is indicated by one star (*), between >0.3 μM and ≤1 μM is indicated by two stars (**), between >0.03 μM and ≤0.3 μM is indicated by three stars (***), and ≤0.03 μM is indicated by four stars (****).

In another experiment the test system is ATXN3 pre-mRNA. Put plainly: RT-qPCR Assay to Quantify Exon 4 Skipping in ATXN3 pre-mRNA in Cells. The experiment is classed as cell-based. To be noted: percent exon 4 skipping in ATXN3 pre-mRNA, RT-qPCR of cell lysates; average IC50. Here is the method: RT-qPCR Assay to Quantify Exon 4 Skipping in ATXN3 pre-mRNA in Cells
as §1
Cells were thawed and incubated in cell culture media (DMEM, 10% FBS, and 1% antibiotic cocktail) for 72 h. Cells were trypsinized, counted, and re-suspended to a concentration of 100,000 cells/mL in cell culture media. A 100 μL aliquot of the cell suspensions were plated at 10,000 cells per well in the compound containing 96 well microtiter plate and incubated for in a cell culture incubator (37° C., 5% CO2, 100% relative humidity).
After 24 h, media was aspirated from the cells and 50 μL of the RCL2 lysis buffer (10 mM Tris-HCL pH 7.4, 150 mM NaCl, 0.33% IGEPAL® CA-630) was added to each well and incubated at RT for 1 min. Chilled nuclease free water (50 μL per well) was added and the plates were immediately transferred on ice. After 1 min on ice, plates were frozen at −80° C. overnight.
Preparation of RT-qPCR Reaction Mixture:
An aliquot of 2 μL/well of the cell lysates was transferred using the liquid handler to the Armadillo 384-Well PCR plate containing 8 μL/well of the RT-qPCR reaction mixture that was prepared as detailed above. The plates were then sealed with MicroAmp™ Optical Adhesive Film followed by spinning down for 1 min and placed in the CFX384 thermocycler (BioRad).
The RT-qPCR was carried out at the following temperatures for the indicated time: • Step 1: 48° C. (30 min) • Step 2: 95° C. (10 min) • Step 3: 95° C. (15 sec) • Step 4: 60° C. (1 min); then, repeated Steps 3 and 4 for a total of 40 cycles.
The percent exon 4 skipping was calculated for each dose of compound treatment using Equations 1 and 2.
Data were fit to a dose response curve and the IC50 was interpolated using XLfit® statistical and curve fitting package.
as §2
(In general: Quantitative PCR measures a nucleic acid by following its amplification.)

A value given as a limit tells only on which side of the number the result lay.

In general, IC50 refers to the concentration needed to halve the response being measured. On to “2-(3-aminotetrahydro-2H-pyran-2-yl)-N-benzyl-3-bromo-5-chlorothieno[3,2-b]pyridin-7-amine [Compound 27]”, for which the IC50 is 30 to 300 nM in experiment [1] and ≤ 30 nM in the experiment with ATXN3 pre-mRNA.

On to “2-((1R,2R)-2-amino-4,4-dimethylcyclohexyl)-3-bromo-5-chloro-N-(thiophen-2-ylmethyl)thieno[3,2-b]pyridin-7-amine and 2-((1S,2S)-2-amino-4,4-dimethylcyclohexyl)-3-bromo-5-chloro-N-(thiophen-2-ylmethyl)thieno[3,2-b]pyridin-7-amine [Compound 152]”, for which the IC50 (in experiment [1]; in the experiment on ATXN3 pre-mRNA) was 30 to 300 nM each time.

In the case of “2-((1R,2R)-2-amino-5,5-difluorocyclohexyl)-5-chloro-3-methyl-N-(thiophen-2-ylmethyl)thieno[3,2-b]pyridin-7-amine and 2-((1S,2S)-2-amino-5,5-difluorocyclohexyl)-5-chloro-3-methyl-N-(thiophen-2-ylmethyl)thieno[3,2-b]pyridin-7-amine [Compound 333]”, the IC50 (in experiment [1]; in the experiment with ATXN3 pre-mRNA) was 30 to 300 nM throughout.

Take “2-((1R,2R)-2-amino-5,5-dimethylcyclohexyl)-3-bromo-5-chloro-N-(thiophen-2-ylmethyl)thieno[3,2-b]pyridin-7-amine and 2-((1S,2S)-2-amino-5,5-dimethylcyclohexyl)-3-bromo-5-chloro-N-(thiophen-2-ylmethyl)thieno[3,2-b]pyridin-7-amine [Compound 149]”: the concentration for half-maximal inhibition (IC50) (in experiment [1]; with ATXN3 pre-mRNA) was 30 to 300 nM throughout.

As for “2-((1R,2R)-2-aminocyclohexyl)-3,5-dichloro-1-(difluoromethyl)-N-(thiophen-2-ylmethyl)-1H-pyrrolo[3,2-b]pyridin-7-amine and 2-((1S,2S)-2-aminocyclohexyl)-3,5-dichloro-1-(difluoromethyl)-N-(thiophen-2-ylmethyl)-1H-pyrrolo[3,2-b]pyridin-7-amine [Compound 421]”, the IC50 (in experiment [1]; in the experiment with ATXN3 pre-mRNA) was ≤ 30 nM throughout.

With “2-((1R,2R)-2-aminocyclohexyl)-5-chloro-3-(prop-1-yn-1-yl)-N-(thiophen-2-ylmethyl)thieno[3,2-b]pyridin-7-amine and 2-((1S,2S)-2-aminocyclohexyl)-5-chloro-3-(prop-1-yn-1-yl)-N-(thiophen-2-ylmethyl)thieno[3,2-b]pyridin-7-amine [Compound 189]”, the IC50 (in experiment [1]; in the experiment on ATXN3 pre-mRNA) was ≤ 30 nM throughout.

As for “2-((1R,2R)-2-aminocyclohexyl)-5-chloro-3-methyl-N-(thiophen-2-ylmethyl)thieno[3,2-b]pyridin-7-amine or 2-((1S,2S)-2-aminocyclohexyl)-5-chloro-3-methyl-N-(thiophen-2-ylmethyl)thieno[3,2-b]pyridine-7-amine [Compound 35]”, the IC50 (in experiment [1]; in the experiment with ATXN3 pre-mRNA) was 300 to 1000 nM each time.

In the case of “2-((1R,2R)-2-aminocyclohexyl)-N-benzyl-5-chloro-3-(prop-1-yn-1-yl)thieno[3,2-b]pyridin-7-amine and 2-((1S,2S)-2-aminocyclohexyl)-N-benzyl-5-chloro-3-(prop-1-yn-1-yl)thieno[3,2-b]pyridin-7-amine [Compound 226]”, the IC50 (in experiment [1]; in the experiment with ATXN3 pre-mRNA) was ≤ 30 nM each time.

Consider “2-((1R,2R)-2-aminocyclohexyl)-N-benzyl-5-chloro-3-iodothieno[3,2-b]pyridin-7-amine and 2-((1S,2S)-2-aminocyclohexyl)-N-benzyl-5-chloro-3-iodothieno[3,2-b]pyridin-7-amine [Compound 295]”, for which the IC50 (in experiment [1]; with ATXN3 pre-mRNA) was 30 to 300 nM in each case.

Take “2-((1R,2R,6S)-2-amino-6-fluorocyclohexyl)-3-bromo-5-chloro-N-(thiophen-2-ylmethyl)thieno[3,2-b]pyridin-7-amine and 2-((1S,2S,6R)-2-amino-6-fluorocyclohexyl)-3-bromo-5-chloro-N-(thiophen-2-ylmethyl)thieno[3,2-b]pyridin-7-amine [Compound 335]”: the IC50 (in experiment [1]; in the experiment on ATXN3 pre-mRNA) was 30 to 300 nM each time.

For “2-((1R,2S,6R)-2-amino-6-fluorocyclohexyl)-3-bromo-5-chloro-N-(thiophen-2-ylmethyl)thieno[3,2-b]pyridin-7-amine and 2-((1S,2R,6S)-2-amino-6-fluorocyclohexyl)-3-bromo-5-chloro-N-(thiophen-2-ylmethyl)thieno[3,2-b]pyridin-7-amine [Compound 181]”, the IC50 (in experiment [1]; with ATXN3 pre-mRNA) was ≤ 30 nM in each case.

“2-((1R,2S,6R)-6-amino-2-methylcyclohex-3-en-1-yl)-3-bromo-5-chloro-N-(thiophen-2-ylmethyl)thieno[3,2-b]pyridin-7-amine and 2-((1S,2R,6S)-6-amino-2-methylcyclohex-3-en-1-yl)-3-bromo-5-chloro-N-(thiophen-2-ylmethyl)thieno[3,2-b]pyridin-7-amine [Compound 402]”: the IC50 (in experiment [1]; in the experiment with ATXN3 pre-mRNA) was ≤ 30 nM throughout.

On to “2-((1R,5S,6S)-6-amino-5-methoxycyclohex-3-en-1-yl)-3-bromo-5-chloro-N-(thiophen-2-ylmethyl)thieno[3,2-b]pyridin-7-amine and 2-((1S,5R,6R)-6-amino-5-methoxycyclohex-3-en-1-yl)-3-bromo-5-chloro-N-(thiophen-2-ylmethyl)thieno[3,2-b]pyridin-7-amine [Compound 371]”, for which the IC50 (in experiment [1]; with ATXN3 pre-mRNA) was 30 to 300 nM each time.

Regarding “2-((1R,6R)-6-aminocyclohex-3-en-1-yl)-3-bromo-5-chloro-N-((E)-pent-2-en-1-yl)thieno[3,2-b]pyridin-7-amine and 2-((1S,6S)-6-aminocyclohex-3-en-1-yl)-3-bromo-5-chloro-N-((E)-pent-2-en-1-yl)thieno[3,2-b]pyridin-7-amine [Compound 455]”, the IC50 (in experiment [1]; in the experiment with ATXN3 pre-mRNA) was 300 to 1000 nM in each case.

With “2-((1R,6R)-6-aminocyclohex-3-en-1-yl)-3-bromo-5-chloro-N-(cyclopent-1-en-1-ylmethyl)thieno[3,2-b]pyridin-7-amine and 2-((1S,6S)-6-aminocyclohex-3-en-1-yl)-3-bromo-5-chloro-N-(cyclopent-1-en-1-ylmethyl)thieno[3,2-b]pyridin-7-amine [Compound 332]”, the IC50 (in experiment [1]; in the experiment with ATXN3 pre-mRNA) was 30 to 300 nM each time.

Take “2-((1R,6R)-6-aminocyclohex-3-en-1-yl)-5-chloro-3-(propa-1,2-dien-1-yl)-N-(thiophen-2-ylmethyl)thieno[3,2-b]pyridin-7-amine and 2-((1S,6S)-6-aminocyclohex-3-en-1-yl)-5-chloro-3-(propa-1,2-dien-1-yl)-N-(thiophen-2-ylmethyl)thieno[3,2-b]pyridin-7-amine [Compound 324]”: the IC50 (in experiment [1]; in the experiment with ATXN3 pre-mRNA) was 30 to 300 nM each time.

Source of the values: US20250382305A1 (PTC THERAPEUTICS, INC., priority 2022, published 2025).
